Data: ChEMBL document CHEMBL1157257, “Bioactive ent-clerodane diterpenoids from the aerial parts of Baccharis gaudichaudiana” (2006)
Active and inactive are the calls of the source. The calls are words filed in the database; no cut-off is given here.

Tests used:
PC-12 [1] = assay: Enhancement of 2 ng/mL NGF-induced neurite outgrowth in rat PC12D cells at 100 umol after 48 hrs by phase-contrast microscopy relative to 50 ng/mL NGF alone; format: functional
PC-12 [2] = assay: Effect on neurite outgrowth from rat PC12D cells at 10 to 100 umol after 48 hrs by phase-contrast microscopy; format: functional, cell-based
PC-12 [3] = assay: Enhancement of NGF-induced neurite outgrowth in rat PC12D cells at 10 to 100 umol after 48 hrs by phase-contrast microscopy; format: functional, cell-based

Row | SMILES | Activity (PC-12 [1]) [%] | Activity (PC-12 [2]) | Activity (PC-12 [3])
1 | CO[C@H]1C[C@H](CC[C@@]2(C)[C@H](C)CC[C@@]3(C)C(C(=O)O)=CCC[C@H]23)CO1 | 49 | inactive | 
2 | COC(=O)CC(CO)CC[C@@]1(C)[C@H](C)C(=O)C[C@@]23COC(=O)C2=CCC[C@@H]31 (stereo not given in full) |  |  | inactive
3 | CO[C@@H]1C[C@H](CC[C@@]2(C)[C@H](C)CC[C@@]3(C)C(C(=O)O)=CCC[C@H]23)CO1 | 53 | inactive | 
